# Data from patent US20050096360A1, “Inhibitors of semicarbazide-sensitive amine oxidase (SSAO) and VAP-1 mediated adhesion useful for treatment of diseases” (priority 2003, published 2005).
# pIC50: −log10 of the molar value. Structures can show the parent of a compound that is named as a salt.
# What was measured:
# [1] = in vivo
# SSAO = assay: IC100 concentrations of SSAO inhibitors used in the adhesion assay; type: biochemical; conditions: FIG. 7 legend
# Text: FIG. 7 depicts the effect of blockage of SSAO/VAP-1 on binding between peripheral blood mononuclear cells (PBMCs) and high endothelial cells (HEC). FIG. 7A is a control experiment showing the effect of various compounds used for treatment on the adhesion of PBMCs to mock-transfected high endothelial cells; a non-treated control is included for comparison (MNT). FIG. 7B is a control experiment showing the effect of various compounds used for treatment on the adhesion of PBMCs to high endothelial cells transfected with VAP-1; a non-treated control is included for comparison (VNT).
# (§1) These studies were repeated using the adhesion assay as described above to evaluate the inhibitors of the invention. Adhesion blockers used included an anti-human VAP-1 monoclonal antibody (Serotec, Oxford, UK), neuramidase (a sialidase, because SSAO/VAP-1 is a sialoglycoprotein; Sigma), and several function-blocking antibodies to rat adhesion molecules (CD31-PECAM, CD54-ICAM-1, […]-P Selectin). […] Antibodies (10 μg/ml) and neuramidase (5 mU) were incubated with the HECs for 30 min at 37° C.; excess antibody was washed away prior to the addition of the labeled PBMCs. Small-molecule inhibitors were pre-incubated the same way at IC100 concentrations, but the amounts present in the supernatant were not washed away to preserve the IC100 concentration during the adhesion step.
# [2] = test system: adhesion of human PBMCs to rat HEC transfected with full-length human SSAO/VAP-1; assay: In vitro adhesion of PBMCs to SSAO/VAP-1-transfected high endothelial cells; type: cell-based; conditions: inhibitors at IC100 concentrations, antibody 10 μg/ml; 3 hr at 37° C.
# Procedure: The studies in this Example were carried out in order to determine whether SSAO/VAP-1 transfected into endothelial cells retained the adhesion function and whether it played any role in the adhesion of freshly isolated human PBMCs to these cells. Moreover, the studies were also designed to determine whether blocking of SSAO/VAP-1 would have an impact on the level of adhesion between these two cell types. Adhesion assays were performed using cells labeled with the fluorescent dye Calcein-AM (Molecular Probes, OR, USA) as per the manufacturer's instructions. Briefly, rat lymph node high endothelial cells (HEC; isolation and culture was described in Ager, A. (1987) J. Cell Sci. 87: 133) were plated overnight in 96-well plates (2,000 cells/well). PBMCs (peripheral blood mononuclear cells) (1×10^7) were labeled with 1 ml of 10 μM Calcein-AM for 1 hr at 37° C., washed three times with RPMI, and added to the 96 well plates containing monolayers of HEC cells mock-transfected or transfected with full-length human SSAO/VAP-1 (60,000 PBMCs were plated per well containing 2,000 HEC cells). Adhesion was carried out for 3 hr at 37° C. Non-adherent cells were removed by washing three times with RPMI and fluorescence was measured in a fluorescence plate reader at an excitation wavelength of 485 nm and emission wavelength of 530 nm. Several controls were included, such as HEC cells and PBMCs (labeled and unlabeled) alone.
# as §1
# recombinant human MAO-B = target: T1, recombinant human MAO-B (Homo sapiens, UniProt P27338); assay: Inhibition of MAO-B activity, colorimetric; type: biochemical; conditions: for Specificity for SSAO vs. MAO-B: ratio IC50 MAO-B to IC50 SSAO
# T1 construct: purchased BD Biosciences (MA, USA)
# T1 sequence (P27338 1-520): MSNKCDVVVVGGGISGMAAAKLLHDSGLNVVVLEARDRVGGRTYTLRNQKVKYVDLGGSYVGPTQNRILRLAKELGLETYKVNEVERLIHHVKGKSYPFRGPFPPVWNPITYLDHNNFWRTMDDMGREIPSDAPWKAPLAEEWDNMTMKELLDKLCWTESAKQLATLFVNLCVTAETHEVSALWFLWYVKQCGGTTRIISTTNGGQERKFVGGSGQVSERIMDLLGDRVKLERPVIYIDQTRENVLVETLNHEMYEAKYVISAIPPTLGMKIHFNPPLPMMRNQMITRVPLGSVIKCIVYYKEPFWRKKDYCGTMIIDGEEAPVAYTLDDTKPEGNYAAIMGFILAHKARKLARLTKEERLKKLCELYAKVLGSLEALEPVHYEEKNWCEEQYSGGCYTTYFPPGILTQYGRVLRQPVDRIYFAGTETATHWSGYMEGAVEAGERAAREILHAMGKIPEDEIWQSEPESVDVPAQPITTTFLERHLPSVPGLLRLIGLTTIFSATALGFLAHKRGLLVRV
# Procedure: The specificity of the different SSAO inhibitors was tested by determining their ability to inhibit MAO-A and MAO-B activities in vitro. Recombinant human MAO-A and human MAO-B enzymes were obtained from BD Biosciences (MA, USA). […] A pre-determined amount of inhibitor diluted in 0.2 M potassium phosphate buffer, pH 7.6, was added to each well, if required. […] Controls lacked inhibitor. The following agents were then added to a final reaction volume of 200 μl in 0.2 M potassium phosphate buffer, pH 7.6: 0.04 mg/ml of MAO-A or 0.07 mg/ml MAO-B enzyme, 15 μl of 10 mM tyramine substrate (for MAO-A), or 15 μl 100 mM benzylamine substrate (for MAO-B), and 50 μl of freshly made chromogenic solution (as above). The plates were incubated for 60 min at 37° C. The increase in absorbance, reflecting MAO activity, was measured at 490 nm using microplate spectrophotometer (Power Wave 40, Bio-Tek Inst.). Inhibition was presented as percent inhibition compared to control after correcting for background absorbance and IC50 values calculated using GraphPad Prism software.
Compound,bioavailability after intravenous and intraperitoneal administration [1],IC100 (SSAO) (SSAO) [nM],number of PBMCs adherent to SSAO/VAP-1 transfected HECs [2],pIC50 (recombinant human MAO-B),Specificity for SSAO vs. MAO-B (recombinant human MAO-B)
"C=C(CNN)c1ccccc1 [Example 2, Hydrochloride]",readily bioavailable,150,reduced,4.00,"2,900"
"C=C(CNN)c1ccc(F)cc1.Cl [Example 8, N-[2-(4′-fluorophenyl)-allyl]-hydrazine Hydrochloride]",readily bioavailable,250,reduced,4.09,"2,500"
"Cl.NNC/C(=C/F)c1ccccc1 [Example 10, (E)-1-fluoro-2-phenyl-3-hydrazinopropene Hydrochloride]",readily bioavailable,–,–,6.19,10
